Results as given in BindingDB's records for doi:10.1021/jm950807f (University of Minnesota, 1996).

Assay: Binding affinity against Delta Opioid receptor in Guinea pig brain membranes

With `NC1=NC([C@]2(N)CC[C@@]3(O)[C@H]4Cc5ccc(O)c6c5C3(CCN4CC3CC3)[C@H]2O6)=N[C@]12CC[C@@]1(O)[C@H]3Cc4ccc(O)c5c4C1(CCN3CC1CC1)[C@H]2O5` [5-amino-2,4(Bis-4-cyclopropylmethyl-10,17-dihydroxy-(1S,5R,13R,17S)-12-oxa-4-azapentacyclo[9.6.1.01,13.05,17.07,18]octadeca-7(18),8,10-trien-14-one) imidazole] the Ki was 183 nM.
`N[C@@]1(C2=N[C@]3(CC[C@@]4(O)[C@H]5Cc6ccc(O)c7c6C4(CCN5CC4CC4)[C@H]3O7)C(=O)N2)CC[C@@]2(O)[C@H]3Cc4ccc(O)c5c4C2(CCN3CC2CC2)[C@H]1O5` [(4S,5'R,13'R,17'S)-2-[(5R,13R,14R,17S)-14-amino-4-(cyclopropylmethyl)-10,17-dihydroxy-12-oxa-4-azapentacyclo[9.6.1.0^{1,13}.0^{5,17}.0^{7,18}]octadeca-7(18),8,10-trien-14-yl]-4'-(cyclopropylmethyl)-10',17'-dihydroxy-3,5-dihydro-12'-oxa-4'-azaspiro[imidazole-4,14'-pentacyclo[9.6.1.0^{1,13}.0^{5,17}.0^{7,18}]octadecane]-7',9',11'(18')-trien-5-one] showed a Ki of 1.24 nM.
